In paper PMC5733478, “A Non-imaging High Throughput Approach to Chemical Library Screening at the Unmodified Adenosine-A3 Receptor in Living Cells” (Frontiers in Pharmacology, 2017):
Where a name gives a salt, the structure may show the parent alone.

Target: T1, human A3AR (Homo sapiens, UniProt P0DMS8)
T1 construct: expressed in transfected cells
T1 sequence (P0DMS8 1-318): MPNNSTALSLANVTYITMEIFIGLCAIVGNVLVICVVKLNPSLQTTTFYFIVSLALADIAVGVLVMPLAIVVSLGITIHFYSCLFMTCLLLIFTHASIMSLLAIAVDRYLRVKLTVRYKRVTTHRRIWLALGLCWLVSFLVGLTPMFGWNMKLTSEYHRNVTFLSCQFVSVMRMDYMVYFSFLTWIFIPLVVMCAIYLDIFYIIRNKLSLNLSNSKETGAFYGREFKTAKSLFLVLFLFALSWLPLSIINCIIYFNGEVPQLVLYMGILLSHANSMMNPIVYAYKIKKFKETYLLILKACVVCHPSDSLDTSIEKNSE
Assay: LOPAC library primary screen: single concentration (10 μM) inhibition of 25 nM CA200645 binding, PHERAstar FS
Settings: not given

Compound	% 25 nM CA200645 binding [%]
N#Cc1cc([N+](=O)[O-])c2sc(C(N)=O)[n+]([O-])c2c1 [BTO-1]	99.9 ± 23.7
Cc1nc(N=Nc2cc(S(=O)(=O)[O-])c3cc([N+](=O)[O-])cc(S(=O)(=O)[O-])c3c2)c(COP(=O)([O-])[O-])c(C=O)c1O.[Na+].[Na+].[Na+].[Na+] [PPNDS tetrasodium]	100.4 ± 12.5
Cl.Cl.Oc1ccc2c3c1O[C@H]1c4[nH]c5c(c4C[C@@]4(O)[C@@H](C2)N(CC2CC2)CC[C@]314)C[C@@]1(O)[C@H]2Cc3ccc(O)c4c3[C@@]1(CCN2CC1CC1)[C@H]5O4 [nor-Binaltorphimine dihydrochloride]	96.9 ± 14.7
N=C(N)NC(=O)c1nc(Cl)c(N)nc1N [Amiloride hydrochloride]	88.5 ± 23.0
O=C[C@H](Cl)[C@@H](O)[C@H](O)[C@H](O)CO [2-Chloro-2-deoxy-D-glucose]	89.9 ± 5.0
CC[C@@H]1Cc2cc(O)ccc2C2=C1c1ccc(O)cc1C[C@H]2CC	85.9 ± 6.0
Clc1cnc(Oc2ccc(Oc3ncc(Cl)cc3Cl)cc2)c(Cl)c1 [TCPOBOP]	93.7 ± 8.4
CN1C2CCCC1CC(NC(=O)c1nn(C)c3ccccc13)C2 (stereo not shown) [Granisetron hydrochloride]	100.4 ± 14.5
NC[C@H](O)c1ccc(O)c(O)c1.O=C(O)C(O)C(O)C(=O)O (racemic) [(±)-Norepinephrine (+)bitartrate]	87.1 ± 8.1
N[C@@H](C(=O)N[C@@H]1C(=O)N2C(C(=O)O)=C(Cl)CS[C@H]12)c1ccccc1 [Cefaclor]	79.3 ± 20.7
CC(C)(C)[C@]1(O)CCN2C[C@H]3c4ccccc4CCc4cccc(c43)[C@@H]2C1 [(+)-Butaclamol hydrochloride]	98.6 ± 1.9
CC(=O)/C=C1\C(=O)N(C)c2ccccc21 [Supercinnamaldehyde]	98.9 ± 0.6
CC(=O)[C@H]1CC[C@H]2[C@@H]3CC=C4C[C@@H](OS(=O)(=O)[O-])CC[C@]4(C)[C@H]3CC[C@]12C.[Na+] [Pregnenolone sulfate sodium]	100.9 ± 23.1
Cc1cccc(/C=C/c2ccccc2)n1 [SIB 1893]	88.4 ± 9.6
C=CCc1ccccc1OCC(O)CNC1(C)CCC(C(C)(C)NC(=O)CBr)CC1 (stereo not shown) [Bromoacetyl alprenolol menthane]	102.8 ± 4.8
Oc1ccc(-c2nc(-c3ccncc3)c(-c3ccc(F)cc3)[nH]2)cc1 [SB 202190]	68.5 ± 12.1
CCCN(CCc1ccccc1)C1CCc2c(O)cccc2C1.Cl (racemic) [(±)-PPHT hydrochloride]	101.7 ± 5.1
C=C[C@@]1(C)CC(=O)[C@]2(O)[C@@]3(C)[C@@H](O)CCC(C)(C)[C@@H]3[C@H](O)[C@H](OC(C)=O)[C@@]2(C)O1 [Forskolin]	100.9 ± 7.2
CCCCNc1ccc(C(=O)OCCN(C)C)cc1 [Tetracaine hydrochloride]	85.8 ± 26.7
N[C@H](C(=O)O)[C@H]1C[C@@H]1C(=O)O	107.7 ± 15.6
O=C(O)/C(=C/c1c(C(=O)O)[nH]c2cc(Cl)cc(Cl)c12)c1ccccc1 [MDL 105,519]	101.6 ± 19.9
CCT007093	68.4 ± 3.4
NC(CCCCCP(=O)(O)O)C(=O)O (racemic) [(±)-2-Amino-7-phosphonoheptanoic acid]	52.2 ± 10.8
N[C@H](C(=O)O)c1cc(O)cc(O)c1 [(S)-3,5-Dihydroxyphenylglycine]	102.7 ± 20.4

Same assay, conditions: % of control wells (1% DMSO and 25 nM CA200645); compounds at 10 µM; whole live cells expressing the A3AR; mean ± SD, three experiments in duplicate

Compound	% 25 nM CA200645 binding [%]
COc1ccc(C2CNC(=O)C2)cc1OC1CCCC1 (stereo not shown) [Rolipram]	98.7 ± 10.9
CC1=C(C)C(=O)C(CCCCC#CCCCC#CCO)=C(C)C1=O [AA-861]	69.6 ± 8.4

Same assay, conditions: compounds tested at 10 µM; % of control wells (1% DMSO and 25 nM CA200645); whole live cells expressing the A3AR; mean ± SD, three experiments in duplicate

Compound	% 25 nM CA200645 binding [%]
C[C@@H]1C(=O)NC2=Nc3cccc(Cl)c3CN21 [Quazinone]	93.4 ± 5.4
C#CCN(C)CCCOc1ccc(Cl)cc1Cl [Clorgyline hydrochloride]	96.0 ± 4.2
